Measurements taken from US4293694A, “Pyrido[3,2,1-jk]carbazols” (Otsuka Pharmaceutical Co., Ltd., priority 1979, dated 1981).
Converted amounts (≈) assume the structure as drawn. Read-outs that look alike come from different tables or passages of the source.

Assays:
[1] = system: Pseudomonas aeruginosa ATCC 10145; assay: Antimicrobial activity, serial dilution method on agar plate; assay type: cell-based; details: ATCC10145, read-out: Minimum Inhibitory Concentration (MIC)
[2] = system: Micrococcus flavus ATCC 10240a; assay: as above; assay type: cell-based; details: ATCC10240A, read-out: Minimum Inhibitory Concentration (MIC)
[3] = system: Bacillus cereus ATCC 11778; assay: as above; assay type: cell-based; details: ATCC11778, read-out: Minimum Inhibitory Concentration (MIC)
[4] = system: Esherichia coli NIHJ JC-2; assay: as above; assay type: cell-based; details: read-out: Minimum Inhibitory Concentration (MIC)
Proteus mirabilis 1287 = assay: as above; assay type: cell-based; details: read-out: Minimum Inhibitory Concentration (MIC)
Esherichia coli NIHJ = assay: as above; assay type: cell-based; details: read-out: Minimum Inhibitory Concentration (MIC)
[5] = system: Serratia marcescens ATCC 14756; assay: as above; assay type: cell-based; details: ATCC14756, read-out: Minimum Inhibitory Concentration (MIC)
Candida albicans KYU = assay: as above; assay type: cell-based; details: read-out: Minimum Inhibitory Concentration (MIC)
[6] = system: Streptococcus faecalis IFO 12580; assay: as above; assay type: cell-based; details: Enterococcus faecalis, IFO12580, read-out: Minimum Inhibitory Concentration (MIC)
Sarcina lutea ATCC 9341 = assay: as above; assay type: cell-based; details: Micrococcus luteus, ATCC9341, read-out: Minimum Inhibitory Concentration (MIC)
[7] = system: Staphyrococcus aureus Newmann; assay: as above; assay type: cell-based; details: read-out: Minimum Inhibitory Concentration (MIC)
[8] = system: Enterbactor aerogenes IFO 12979; assay: as above; assay type: cell-based; details: read-out: Minimum Inhibitory Concentration (MIC)
Enterbactor cloacae 2 = assay: as above; assay type: cell-based; details: read-out: Minimum Inhibitory Concentration (MIC)
[9] = system: Klebsiella pneumoniae ST-101; assay: as above; assay type: cell-based; details: ST101, read-out: Minimum Inhibitory Concentration (MIC)
[10] = system: Staphyrococcus aureus FDA 209p; assay: as above; assay type: cell-based; details: read-out: Minimum Inhibitory Concentration (MIC)
[11] = system: Salmonella typhimurium kh; assay: as above; assay type: cell-based; details: Salmonella enterica, read-out: Minimum Inhibitory Concentration (MIC)
Acute toxicity = details: rat, in vivo, rats, dd strain, 18 to 22 g, fasted 12 hours
Protocol: Further, the acute toxicity of the compounds of the present invention having the formula (I) was determined by intravenous administration (i.v.) and oral administration (p.o.) in 5 to 6 groups of rats (dd strain; body weight, 18 to 22 g; 10 rats in each group) which had been fasted for 12 hours prior to the test.

Bacillus anthracis = assay: microbe, parasite or virus in culture; assay type: cell-based; details: read-out: Minimum Inhibitory Concentration (MIC)
[12] = system: Bacillus subtilis ATCC 6633; assay: Antimicrobial activity, serial dilution method on agar plate; assay type: cell-based; details: ATCC6633, read-out: Minimum Inhibitory Concentration (MIC)
Streptomyces viridans = assay: as above; assay type: cell-based; details: read-out: Minimum Inhibitory Concentration (MIC)
[13] = iv, read-out: LD50 (50% lethal dose), i.v.
[14] = po, read-out: LD50 (50% lethal dose), p.o.

Compound | MIC [1] [µg/mL] | MIC [2] [µg/mL] | MIC [3] [µg/mL] | MIC [4] [µg/mL] | MIC (Proteus mirabilis 1287) [µg/mL] | MIC (Esherichia coli NIHJ) [µg/mL] | MIC [5] [µg/mL] | MIC (Candida albicans KYU) [µg/mL] | MIC [6] [µg/mL] | MIC (Sarcina lutea ATCC 9341) [µg/mL] | MIC [7] [µg/mL] | MIC [8] [µg/mL] | MIC (Enterbactor cloacae 2) [µg/mL] | MIC [9] [µg/mL] | MIC [10] [µg/mL] | MIC [11] [µg/mL] | LD50 (Acute toxicity; [13]) [mg/kg] | MIC (Bacillus anthracis) [µg/mL] | MIC [12] [µg/mL] | MIC (Streptomyces viridans) [µg/mL] | other results
O=C(O)c1cn2c3c(cc(F)cc3c1=O)C1CCCCC12 (stereo not shown) [Compound 1, 2-fluoro-7a,8,9,10,11,11a-hexahydro-4-oxo-4H-pyrido[3,2,1-jk]carbazol-5-carboxylic acid] | > 100 | 50 (≈ 174 µM) | 25 (≈ 87 µM) | 6.3 (≈ 21.9 µM) | 12.5 (≈ 43.5 µM) | 6.3 (≈ 21.9 µM) | 3.2 (≈ 11.1 µM) | > 500 | 100 (≈ 348 µM) | 50 (≈ 174 µM) | 6.3 (≈ 21.9 µM) | 3.2 (≈ 11.1 µM) | 3.2 (≈ 11.1 µM) | 3.2 (≈ 11.1 µM) | 6.3 (≈ 21.9 µM) | 6.3 (≈ 21.9 µM) | 130 | 3.2 (≈ 11.1 µM) | 1.6 (≈ 5.57 µM) | 100 (≈ 348 µM) | LD50 (Acute toxicity; [14]): 5000 mg/kg
O=C(O)c1cn2c3c(cccc3c1=O)C1CCCCC12 (stereo not shown) [Compound 2, 7a,8,9,10,11,11a-Hexahydro-4-oxo-4H-pyrido[3,2,1-jk]carbazol-5-carboxylic acid] | > 100 | 100 (≈ 371 µM) | 100 (≈ 371 µM) | 25 (≈ 92.8 µM) | 50 (≈ 186 µM) | 25 (≈ 92.8 µM) | 12.5 (≈ 46.4 µM) | > 500 | > 100 | 100 (≈ 371 µM) | 25 (≈ 92.8 µM) | 12.5 (≈ 46.4 µM) | 12.5 (≈ 46.4 µM) | 12.5 (≈ 46.4 µM) | 25 (≈ 92.8 µM) | 25 (≈ 92.8 µM) | 120 | 25 (≈ 92.8 µM) | 12.5 (≈ 46.4 µM) | > 100 | LD50 (Acute toxicity; [14]): 5000 mg/kg
CCOC(=O)c1cn2c3c(cc(F)cc3c1=O)C1CCCCC12 (stereo not shown) [Compound 3, ethyl 2-fluoro-7a,8,9,10,11,11a-hexahydro-4-oxo-4H-pyrido-[3,2,1-jk]carbazol-5-carboxylate] | > 100 | 100 (≈ 317 µM) | 100 (≈ 317 µM) | 12.5 (≈ 39.6 µM) | 25 (≈ 79.3 µM) | 25 (≈ 79.3 µM) | 25 (≈ 79.3 µM) | > 500 | > 100 | 100 (≈ 317 µM) | 25 (≈ 79.3 µM) | 25 (≈ 79.3 µM) | 12.5 (≈ 39.6 µM) | 12.5 (≈ 39.6 µM) | 25 (≈ 79.3 µM) | 25 (≈ 79.3 µM) | 80 | 50 (≈ 159 µM) | 6.3 (≈ 20 µM) | > 100 | LD50 (Acute toxicity; [14]): 3000 mg/kg
COc1cc2c3c(c1)c(=O)c(C(=O)O)cn3C1CCCCC21 (stereo not shown) [Compound 4, 2-Methoxy-7a,8,9,10,11,11a-hexahydro-4-oxo-4H-pyrido[3,2,1-jk]carbazol-5-carboxylic acid] | > 100 | 100 (≈ 334 µM) | 12.5 (≈ 41.8 µM) | 12.5 (≈ 41.8 µM) | 25 (≈ 83.5 µM) | 12.5 (≈ 41.8 µM) | 12.5 (≈ 41.8 µM) | > 500 | 100 (≈ 334 µM) | 100 (≈ 334 µM) | 12.5 (≈ 41.8 µM) | 6.3 (≈ 21 µM) | 6.3 (≈ 21 µM) | 6.3 (≈ 21 µM) | 12.5 (≈ 41.8 µM) | 12.5 (≈ 41.8 µM) | 130 | 6.3 (≈ 21 µM) | 3.2 (≈ 10.7 µM) | 100 (≈ 334 µM) | LD50 (Acute toxicity; [14]): 4000 mg/kg
Cc1cc(C)c2c(=O)c(C(=O)O)cn3c2c1C1CCCCC13 (stereo not shown) [Compound 5, 1,3-Dimethyl-7a,8,9,10,11,11a-hexahydro-4-oxo-4H-pyrido[3,2,1-jk]carbazol-5-carboxylic acid] | > 100 | 100 (≈ 336 µM) | 25 (≈ 84.1 µM) | 12.5 (≈ 42 µM) | 12.5 (≈ 42 µM) | 12.5 (≈ 42 µM) | 6.3 (≈ 21.2 µM) | > 500 | > 100 | 100 (≈ 336 µM) | 6.3 (≈ 21.2 µM) | 12.5 (≈ 42 µM) | 6.3 (≈ 21.2 µM) | 12.5 (≈ 42 µM) | 6.3 (≈ 21.2 µM) | 12.5 (≈ 42 µM) | 120 | 6.3 (≈ 21.2 µM) | 6.3 (≈ 21.2 µM) | > 100 | LD50 (Acute toxicity; [14]): 3000 mg/kg
O=C(O)c1cn2c3c(ccc([N+](=O)[O-])c3c1=O)C1CCCCC12 (stereo not shown) [Compound 6, 3-nitro-7a,8,9,10,11,11a-hexahydro-4-oxo-4H-pyrido[3,2,1-jk]carbazol-5-carboxylic acid] | > 100 | 50 (≈ 159 µM) | 12.5 (≈ 39.8 µM) | 12.5 (≈ 39.8 µM) | 12.5 (≈ 39.8 µM) | 6.3 (≈ 20 µM) | 6.3 (≈ 20 µM) | > 500 | > 100 | 50 (≈ 159 µM) | 12.5 (≈ 39.8 µM) | 6.3 (≈ 20 µM) | 6.3 (≈ 20 µM) | 6.3 (≈ 20 µM) | 12.5 (≈ 39.8 µM) | 12.5 (≈ 39.8 µM) | 110 | 12.5 (≈ 39.8 µM) | 3.2 (≈ 10.2 µM) | > 100 | LD50 (Acute toxicity; [14]): 4000 mg/kg
Nc1ccc2c3c1c(=O)c(C(=O)O)cn3C1CCCCC21 (stereo not shown) [Compound 7, 3-amino-7a,8,9,10,11,11a-hexahydro-4-oxo-4H-pyrido[3,2,1-jk]carbazol-5-carboxylic acid] | > 100 | > 100 | 50 (≈ 176 µM) | 50 (≈ 176 µM) | 50 (≈ 176 µM) | 25 (≈ 87.9 µM) | 12.5 (≈ 44 µM) | > 500 | > 100 | > 100 | 50 (≈ 176 µM) | 12.5 (≈ 44 µM) | 12.5 (≈ 44 µM) | 12.5 (≈ 44 µM) | 50 (≈ 176 µM) | 12.5 (≈ 44 µM) | 115 | 12.5 (≈ 44 µM) | 6.3 (≈ 22.2 µM) | > 100 | LD50 (Acute toxicity; [14]): 4500 mg/kg
CCn1cc(C(=O)O)c(=O)c2ccc(C)nc21 [Compound 13, 1-ethyl-1,4-dihydro-7-methyl-4-one-1,8-naphthyridine-3-carboxylic acid, reference compound] | > 100 | > 100 | 50 (≈ 215 µM) | 6.3 (≈ 27.1 µM) | 25 (≈ 108 µM) | 12.5 (≈ 53.8 µM) | 3.2 (≈ 13.8 µM) | > 500 | > 100 | > 100 | 50 (≈ 215 µM) | 6.3 (≈ 27.1 µM) | 12.5 (≈ 53.8 µM) | 12.5 (≈ 53.8 µM) | 50 (≈ 215 µM) | 6.3 (≈ 27.1 µM) | – | 12.5 (≈ 53.8 µM) | 6.3 (≈ 27.1 µM) | > 100 | –
